# According to US20250326748A1, “COMPOUNDS AND METHODS FOR MODULATING SPLICING” (REMIX THERAPEUTICS INC., priority 2022, published 2025):
# How the values were obtained:
# [1] = system: HiBiT-tagged HTT protein; assay: HiBiT protein abundance assay, HTT (K562 HiBiT knock-in); type: cell-based, human; settings: HiBiT knock-in cells, 24 hours
# Procedure: (§1) Compounds described herein were used to screen for effects on quantitative protein abundance using a HiBit assay system (Promega). Quantitative protein abundance was determined by measuring the protein levels of HiBit-tagged protein targets expressed in cell culture via luminescence using the Nano-Glo HiBiT Lytic Detection System, which uses a split complementation assay format to reconstitute NanoBiT enzyme to generate a luminescent signal. A protein abundance assay was developed such that endogenous protein targets could be modified with the HiBiT peptide tag and their abundance could be assessed after compound treatment. Briefly, K562 cell lines containing a HiBiT-modification were treated with various compounds described herein (e.g., compounds of Formulas (I), or (II)). After treatment for 24 hours, the protein abundance of a specific target was determined by measuring luminescence.
# (§2) • Promega Nano-Glo HiBiT Lytic Detection System (cat #N3030) • Corning 384-well TC-treated microplates (cat #3570)
# (§3) Cells were maintained in IMDM with 10% FBS. Before the assay, cells were diluted with […] growth media (IMDM+1% FBS media) and were seeded in a 384-well plate at a density of 10000 cells/well (for each cell line listed in Table 6). Each compound was prepared as a 10-point 3-old serial dilution in DMSO with the top dose at a final concentration of 10 μM in the well. Unmodified K562 cells were added at the previously specified density with DMSO to serve as an assay baseline and positive control (PC) and DMSO only with the respective modified cell lines was added to the negative control (NC) columns. Final DMSO concentration was kept at or below 0.25%. Treated cell plates were placed in an incubator at 37° C. with 5% CO2 for 24 hours. After 24 hours, 25 μL of Complete HiBit Lytic reagent was added to each well at room temperature (e.g. one plate requiring 10 ml Lytic Buffer, 100 μL LgBiT Protein, 200 μL Lytic Substrate), shaken for 5 minutes at 600 RPM, then left to sit for 10 minutes for signal to stabilize before reading on a Spark Cyto plate reader (Tecan) with a 500 ms measurement time.
# (§4) To determine compound effects on protein abundance of each target in Table 6, the percent response for each respective cell line was calculated at each compound concentration as follows:
# (§5) For the normalized response at each concentration, a four-parameter logistical regression was fit to the data and the response was interpolated at the 50% value to determine a concentration for protein abundance at 50% (IC50) the untreated control.
# [2] = system: HiBiT-tagged MYB protein; assay: HiBiT protein abundance assay, MYB (K562 HiBiT knock-in); type: cell-based, human; settings: HiBiT knock-in cells, 24 hours
# Procedure: as §1, §2, §3, §4, §5
# [3] = system: K562 cells; assay: Cell viability, Cell Titer Glo 2.0 assay, K562; settings: 72 hours
# [4] = system: SMN2 mRNA; assay: Splicing RT-qPCR panel, SMN2 canonical junction (CJ) mRNA; type: cell-based, human; settings: Homo sapiens, read-out: SMN2 CJ (decrease in CJ mRNA levels, IC50)
# Summary of the method: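 A673 cells (DMEM, 10% FBS) or K562 cells (IMDM, 10% FBS) treated 24 h at 37 °C with an 11-point 3-fold dilution, top 10 uM, DMSO ≤0.25%. Canonical-junction mRNA quantified in lysates by RT-qPCR, normalised to GAPDH, GUSB or PPIA and to DMSO (2^−ΔΔCt), then converted to % response.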
Structure (SMILES),IC50 [1],IC50 [2],IC50 [4],"Effect on Cell Viability, K562 [3]"
Cc1c(O)c(-c2cc(Cl)c3cc(N4CCNC5(CC5)C4)cnc3n2)cc2cn(C)nc12 [Compound 381],0.1 to 1 µM,< 0.1 µM,–,B (100-1000 nM)
CN[C@H]1CCN(c2cnc3nc(-c4cc(C)c5nc(C)cn5n4)ccc3c2)C1 [Compound 116],< 0.1 µM,< 0.1 µM,< 0.1 µM,A (<100 nM)
CCN[C@@H]1CCN(c2cnc3nc(-c4cc5cn(C)nc5cc4O)cc(Cl)c3c2)C1 [Compound 317],< 0.1 µM,< 0.1 µM,< 0.1 µM,A (<100 nM)
C[C@@H]1CN(c2cnc3nc(-c4cc5cn(C)nc5cc4O)ccc3c2)C[C@H](C)N1 [Compound 343],1 to 10 µM,0.1 to 1 µM,< 0.1 µM,B (100-1000 nM)
CN(c1cnc2nc(-c3cc4cn(C)nc4c(F)c3O)cc(Cl)c2c1)[C@@H]1CCNC1 [Compound 276],0.1 to 1 µM,< 0.1 µM,< 0.1 µM,A (<100 nM)
CN(c1cnc2nc(-c3cc4cn(C)nc4c(F)c3O)ccc2c1)C1CCNCC1 [Compound 284],1 to 10 µM,0.1 to 1 µM,< 0.1 µM,–
Cc1cn2nc(-c3cc(Cl)c4cc(N5C[C@H](C)N[C@@H](C)C5)cnc4n3)cc(C)c2n1 [Compound 336],0.1 to 1 µM,< 0.1 µM,–,B (100-1000 nM)
Cc1cn2cc(-c3cc(Cl)c4cc(N5C[C@H](C)N[C@@H](C)C5)cnc4n3)cc(F)c2n1 [Compound 298],0.1 to 1 µM,< 0.1 µM,–,B (100-1000 nM)
CCN[C@H]1CCN(c2cnc3nc(-c4cc5cn(C)nc5c(C)c4O)ccc3c2)C1 [Compound 123],< 0.1 µM,< 0.1 µM,< 0.1 µM,–

# More lines, main results first:
IC50 [1],IC50 [2],IC50 [4],Structure (SMILES),"Effect on Cell Viability, K562 [3]"
1 to 10 µM,0.1 to 1 µM,< 0.1 µM,CN1CCC[C@H]2CN(c3cnc4nc(-c5cc6cn(C)nc6c(F)c5O)cc(Cl)c4c3)C[C@H]21 [Compound 304],B (100-1000 nM)
< 0.1 µM,< 0.1 µM,< 0.1 µM,"Cc1c(O)c(-c2ccc3cc(N4CCC(NCC5CC5)C4)cnc3n2)cc2cn(C)nc12 (stereo not shown) [Compound 105, 5-(6-{3-[(cyclopropylmethyl)amino]pyrrolidin-1-yl}-1,8-naphthyridin-2-yl)-2,7-dimethylindazol-6-ol]",A (<100 nM)
0.1 to 1 µM,1 to 10 µM,> 10 µM,"Cn1cc2cc(-c3cnc4nc(N5CCC(NC(C)(C)C)C5)ccc4c3)c(O)cc2n1 (stereo not shown) [Compound 133, 5-{7-[3-(tert-butylamino)pyrrolidin-1-yl]-1,8-naphthyridin-3-yl}-2-methylindazol-6-ol]",D (greater than 10 μM)
0.1 to 1 µM,< 0.1 µM,< 0.1 µM,"Cc1c(O)c(-c2cc(C3CC3)c3cc(N4CCNCC4)cnc3n2)cc2cn(C)nc12 [Compound 144, 5-(4-cyclopropyl-6-(piperazin-1-yl)-1,8-naphthyridin-2-yl)-2,7-dimethyl-2H-indazol-6-ol bis(2,2,2-trifluoroacetate)]",–
0.1 to 1 µM,< 0.1 µM,–,"Cc1cn2nc(-c3ccc4c(Cl)c(N5C[C@H](C)N[C@@H](C)C5)cnc4n3)cc(C)c2n1 [Compound 393, 5-chloro-2-{2,8-dimethylimidazo[1,2-b]pyridazin-6-yl}-6-[(3S,5S)-3,5-dimethylpiperazin-1-yl]-1,8-naphthyridine]",B (100-1000 nM)
0.1 to 1 µM,< 0.1 µM,< 0.1 µM,"Cc1cc(-c2cc3cn(C)nc3c(C)c2O)nc2ncc(N3CCNCC3)cc12 [Compound 151, 2,7-dimethyl-5-[4-methyl-6-(piperazin-1-yl)-1,8-naphthyridin-2-yl]indazol-6-ol]",–
